Counter-ions that a name gives are not always drawn.
Key:
[1] = tested on: experimental allergic encephalitis (EAE); test: experimental allergic encephalitis (EAE) model induced by intraplantar myelin basic protein (fragment 68-84) in Freund's complete adjuvant; assay type: in vivo; conditions: EAE in Lewis rats, administered orally from day zero of induction
From the text: The activity of the compounds of formula (I) was investigated in the model of experimental allergic encephalitis (EAE) induced in Lewis rats by the intraplantar administration of myelin basic protein (MBP) (fragment 68-84) in a Freund's complete adjuvant (FCA) enriched in Mycobacterium tuberculosis, according to the protocol published by Martin and Near (Journal of Neuroimmunology, 1995, 241-245).
EAE is an inflammatory autoimmune disease of the central nervous system which presents demyelinating lesions reminiscent of human multiple sclerosis.

melting point [°C]	SMILES	severity of the disease (paralysis of the back paws) [1]	weight loss of the treated animals ([1]; compared with animals treated with the vehicle only)
207 to 210	FC(F)(F)c1cccc(C2=CCN(CC(c3ccccc3)c3ccccc3)CC2)c1 (as salt: hydrochloride)		
140 to 143	CCCCCc1ccc(CCN2CC=C(c3cccc(C(F)(F)F)c3)CC2)cc1C (as salt: oxalate)		
	Cl.FC(F)(F)c1cccc(C2=CCN(CCc3ccc4ccccc4c3)CC2)c1 [1-(2-naphth-2-ylethyl)-4-(3-trifluoromethylphenyl)-1,2,3,6-tetrahydropyridine hydrochloride]	statistically less severe	significantly lower
